Data reported in US5026708A, “Pyrimidine type mevalonolactones” (Nissan Chemical Industries Ltd., priority 1987, dated 1991).
pIC50: −log10 of the molar value. Counter-ions that a name gives are not always drawn. Like-named read-outs stand apart in the source and are kept apart here.

How the values were obtained:
[1] = system: cholesterol biosynthesis in which HMG-CoA reductase serves as a rate limiting enzyme (rat liver microsome and sup fraction); assay: Test A: Inhibition of cholesterol biosynthesis from acetate in vitro; assay type: biochemical, male Wistar rat; details: for Relative activities by Test A: based on the activities of CS-514 by Test A being evaluated to be 1; for pIC50: Test A, rat liver microsome and sup fraction, [2-14C]sodium acetate, 2 hours at 37° C., read-out: IC50 (molar concentration), inhibitory activities by Test A
Description: Enzyme solution was prepared from liver of male Wistar rat billialy connulated and discharged bile for over 24 hours. Liver was cut out at mid-dark and microsome and supernatant fraction which was precipitable with 40-80% of saturation of ammonium sulfate (sup fraction) were prepared from liver homogenate according to the modified merhod of Knauss et. al.; Kuroda, M., et. al., Biochim. Biophys. Acta, 489, 119 (1977). For assay of cholesterol biosynthesis, microsome (0.1 mg protein) and sup fraction (1.0 mg protein) were incubated for 2 hours at 37° C. in 200 μl of the reaction mixture containing ATP; 1 mM, Glutathione; 6 mM, Glucose-1-phosphate; 10 mM, NAD; 0.25 mM, NADP; 0.25 mM, CoA; 0.04 mM and 0.2 mM [2-^14 C]sodium acetate (0.2 μCi) with 4 μl of test compound solution dissolved in water or dimethyl sulfoxide. To stop reaction and saponify, 1 ml of 15% EtOH-KOH was added to the reactions and heated at 75° C. for 1 hour. Nonsaponifiable lipids were extracted with petroleum ether and incorporated ^14 C radioactivity was counted. Inhibitory activity of compounds was indicated with IC50.
(§1) With respect to the compounds of the present invention, the inhibitory activities against the cholesterol biosynthesis in which HMG-CoA reductase serves as a rate limiting enzyme, were measured by the above Test A and B. The results are shown in Tables 2, 2-2 and 3. Further, the results of the measurements by Test C are also presented.

[2] = system: cholesterol biosynthesis in Hep G2 cells; assay: Test B: Inhibition of cholesterol biosynthesis in culture cells; assay type: cell-based; details: acetate added at 0 hr; for Relative activities by Test B-1: based on the activities of CS-514 by Test B-1 being evaluated to be 1
Description: Hep G2 cells at over 5th passage were seeded to 12 well plates and incubated with Dulbecco's modified Eagle (DME) medium containing 10% of fetal bovine serum (FBS) at 37° C., 5% CO2 until cells were confluent for about 7 days. Cells were exposed to the DME medium containing 5% of lipoprotein deficient serum (LpDS) prepared by ultracentrifugation method for over 24 hours. Medium was changed to 0.5 ml of fresh 5% LpDS containing DME before assay and 10 μl of test compound solution dissolved in water or DMSO were added. 0.2 μCi of [2-^14 C]sodium acetate (20 μl ) was added at 0 hr(B-1) or 4 hrs(B-2) after addition of compounds. After 4 hrs further incubation with [2-^14 C]sodium acetate, medium was removed and cells were washed with phosphate buffered saline(PBS) chilled at 4° C. Cells were scraped with rubber policeman and collected to tubes with PBS and digested with 0.2 ml of 0.5 N KOH at 37° C. Aliquot of digestion was used for protein analysis and remaining was saponified with 1 ml of 15% EtOH-KOH at 75° C. for 1 hour. Nonsaponifiable lipids were extracted with petroleum ether and ^14 C radioactivity was counted. Counts were revised by cell protein and indicated with DPM/mg protein. Inhibitory activity of compounds was indicated with IC50.
as §1

Test D: Acute toxicity = assay: Test D: Acute toxicity; parameters: species or system ICR male mice; details: mouse, in vivo, oral, 0.5% CMC suspension, read-out: mortality after seven days
Description: A 0.5% CMC suspension of a test compound was orally administered to ICR male mice (group of from one to three mice). The acute toxicity was determined based on the mortality after seven days. With compound I-5-8 and I-5-11 of the present invention, the mortality was 0% even when they were orally administered in an amount of 824 mg/kg and 982 mg/kg, respectively.

cholesterol biosynthesis = assay: Test C: Inhibition of cholesterol biosynthesis in vivo; parameters: species or system Male Sprague-Dawley rats; details: rats
Description: Male Sprague-Dawley rats weighing about 150 g were fed normal Purina chow diet and water ad libitum, and exposed to 12 hours light/12 hours dark lighting pattern (2:00 PM-2:00 AM dark) prior to use for in vivo inhibition test of cholesterol biosynthesis. Animals were separated groups consisting of five rats as to be average mean body weight in each groups. […] As control, rats were orally administered only water or vehicle. At 90 minutes after sample administration, rats were injected intraperitoneally with 10 μCi of [2-^14 C]sodium acetate at volume of 0.2 ml per one. 2 Hours later, blood samples were obtained and serum were separated immediately. Total lipids were extracted according to the method of Folch et al. and saponified with EtOH-KOH. Nonsaponifiable lipids were extracted with petroleum ether and radio activity incorporated into nonsaponifiable lipids was counted.
Inhibitory activity was indicated as percent decrease of counts in testing groups (DPM/2 ml serum/2 hours) from that in control group.

SMILES | Relative activities by Test A [1] | Relative activities by Test B-1 [2] | further results
O=C(O)CC(O)CC(O)/C=C/c1c(-c2ccc(F)cc2)nc(-c2cccc(Cl)c2)nc1C1CC1 (centres unmarked) [Compound I-5-13] | 15.9 |  | 
CC(C)c1nc(-c2ccccc2)nc(-c2ccc(F)cc2)c1/C=C/C(O)CC(O)CC(=O)O (centres unmarked) [Compound I-5-8] | 4.6 | 36.1 | mortality at 168 h (Test D: Acute toxicity; 824 mg/kg): 0%
Cc1nc(C)c(/C=C/C(O)CC(O)CC(=O)O)c(-c2ccccc2)n1 (centres unmarked) [Compound I-5-2] |  |  | pIC50 [1]: 5.30
O=C(O)CC(O)CC(O)/C=C/c1c(-c2ccc(F)cc2)nc(-c2ccc(-c3ccccc3)cc2)nc1C1CC1 (centres unmarked) [Compound I-5-16] | 1.9 |  | 
CC(C)c1nc(-c2ccccc2)nc(-c2ccc(F)cc2)c1/C=C/[C@@H]1C[C@@H](O)CC(=O)O1 (relative stereo) [Compound I-3-8, (E)-6-[4'-(4''-fluorophenyl)-6'-(1''-methylethyl)-2'-phenylpyrimidin-5 '-ylethenyl]-4-hydroxy-3,4,5,6-tetrahydro-2H-pyran-2-one] | 5.2 |  | 
Cc1nc(-c2ccccc2)nc(-c2ccc(F)cc2)c1/C=C/C(O)CC(O)CC(=O)O (centres unmarked) [Compound I-5-1, Sodium salt of (E)-3,5-dihydroxy-7-[4'-(4''-fluorophenyl)-6'methyl-2 2'-phenylpyrimidin-5'-yl]hept-6-enoic acid] |  |  | pIC50 [1]: 7.74
Cc1ccc(-c2nc(-c3ccc(F)cc3)c(/C=C/C(O)CC(O)CC(=O)O)c(C3CC3)n2)cc1 (centres unmarked) [Compound I-5-15] | 14.5 | 58.5 | percent decrease of counts relative to control group (cholesterol biosynthesis; oral administration of 0.5 mg/kg): 35%
O=C(O)CC(O)CC(O)/C=C/c1c(-c2ccc(F)cc2)nc(Cc2ccccc2)nc1C1CC1 (centres unmarked) [Compound I-5-12] | 14.8 | 46.3 | 
COc1ccc(-c2nc(-c3ccc(F)cc3)c(/C=C/C(O)CC(O)CC(=O)O)c(C3CC3)n2)cc1 (centres unmarked) [Compound I-5-14] | 16.1 |  | 
CCOC(=O)CC(O)CC(O)/C=C/c1c(-c2ccc(F)cc2)nc(-c2cccc(Cl)c2)nc1C1CC1 (centres unmarked) [Compound I-1-13] |  | 41.6 | 
CC[C@H](C)C(=O)O[C@H]1C[C@@H](C)C=C2C=C[C@H](C)[C@H](CC[C@@H]3C[C@@H](O)CC(=O)O3)[C@H]21 [Mevinolin, reference compound] |  |  | pIC50 [1]: 7.85
CC[C@H](C)C(=O)O[C@H]1C[C@H](O)C=C2C=C[C@H](C)[C@H](CC[C@@H](O)C[C@@H](O)CC(=O)O)[C@H]21 [CS-514, reference compound] |  |  | pIC50 ([2]; Homo sapiens, HepG2, Test B-1, Hep G2 cells, read-out: IC50 (molar concentration), Test B-1): 5.85; pIC50 [1]: 7.90; percent decrease of counts relative to control group (cholesterol biosynthesis; oral administration of 10 mg/kg): 55%
Cc1nc(-c2ccccc2)nc(-c2ccccc2)c1/C=C/C(O)CC(O)CC(=O)O (centres unmarked) [Compound I-5-3] |  |  | pIC50 [1]: 7.00
CCOC(=O)CC(O)CC(O)/C=C/c1c(-c2ccc(F)cc2)nc(-c2ccc(OC)cc2)nc1C1CC1 (centres unmarked) [Compound I-1-14] |  | 72.5 | 
CCOC(=O)CC(O)CC(O)/C=C/c1c(-c2ccc(F)cc2)nc(Cc2ccccc2)nc1C1CC1 (centres unmarked) [Compound I-1-12] |  | 41.3 | 
O=C(O)CC(O)CC(O)/C=C/c1c(-c2ccc(F)cc2)nc(-c2ccccc2)nc1C1CC1 (centres unmarked) [Compound I-5-11] | 15.9 | 28.4 | mortality at 168 h (Test D: Acute toxicity; 982 mg/kg): 0%
O=C(O)CC(O)CC(O)/C=C/c1c(-c2ccc(F)cc2)nc(-c2cccc(C(F)(F)F)c2)nc1C1CC1 (centres unmarked) [Compound I-5-17] | 12.2 |  | 
